The source made the active and inactive calls. The rule behind the calls is not given here.

Experiment [1] concerns the target T1, Tyrosinase (Agaricus bisporus) (UniProt O42713).
T1 sequence (whole entry): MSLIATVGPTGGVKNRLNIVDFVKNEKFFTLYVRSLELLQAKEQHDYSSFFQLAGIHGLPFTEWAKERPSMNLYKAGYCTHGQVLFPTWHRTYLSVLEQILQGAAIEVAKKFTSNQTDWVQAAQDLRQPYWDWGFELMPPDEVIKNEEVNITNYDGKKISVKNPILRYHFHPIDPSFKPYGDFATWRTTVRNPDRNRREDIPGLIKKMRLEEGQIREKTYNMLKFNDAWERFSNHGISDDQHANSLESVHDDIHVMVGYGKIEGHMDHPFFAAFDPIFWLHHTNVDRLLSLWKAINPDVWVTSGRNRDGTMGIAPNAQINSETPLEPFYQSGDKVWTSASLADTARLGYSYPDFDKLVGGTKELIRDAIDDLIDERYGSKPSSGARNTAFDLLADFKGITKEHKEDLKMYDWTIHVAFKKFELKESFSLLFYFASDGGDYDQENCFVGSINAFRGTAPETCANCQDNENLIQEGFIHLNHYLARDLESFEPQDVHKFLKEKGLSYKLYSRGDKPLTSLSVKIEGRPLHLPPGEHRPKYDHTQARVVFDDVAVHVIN
Put plainly: Inhibition of mushroom tyrosinase diphenolase activity using L-DOPA as substrate assessed as formation of DOPAchrome at 100 uM preincubated for 10 mins followed by substrate addition measured for 1 min relative to control.

Experiment [2] deals with T2, Tyrosinase (Agaricus bisporus, UniProt O42713).
T2 sequence (O42713 whole entry): T1 sequence (whole entry)
Description: Inhibition of mushroom tyrosinase diphenolase activity using L-DOPA as substrate assessed as formation of DOPAchrome preincubated for 10 mins followed by substrate addition measured for 1 min

Experiment [3] deals with T1, Tyrosinase (Agaricus bisporus). Put plainly: Irreversible inhibition of mushroom tyrosinase diphenolase activity assessed as oxidation of L-DOPA at 5 to 10 uM.
For experiment [4] the target is unchanged. As to the kind of experiment: Irreversible inhibition of mushroom tyrosinase diphenolase activity assessed as oxidation of L-DOPA at 1 to 2 uM.

For the compound `O=C1NC(=S)NC(=O)C1=Cc1ccccc1O`, the inhibition in experiment [1] is less than 20%.
`COc1ccc(C=C2C(=O)NC(=S)NC2=O)cc1` registered an IC50 in experiment [2] of 70.1 µM.
Turning to `O=C1NC(=O)C(=Cc2cccc(O)c2)C(=O)N1`, the inhibition in experiment [1] was less than 20%.
In experiment [2], `O=C1NC(=O)C(=Cc2ccc(O)cc2O)C(=O)N1` displayed an IC50 of 17.2 µM.
`COc1ccc(C=C2C(=O)NC(=O)NC2=O)cc1` showed a 50% inhibitory concentration (IC50) in experiment [2] of 100 µM.
For the compound `COc1ccc(C=C2C(=O)NC(=O)NC2=O)cc1O`, the inhibition in experiment [1] is less than 20%.
In the case of `COc1cc(C=C2C(=O)NC(=S)NC2=O)cc(OC)c1OC`, in experiment [1], the inhibition is less than 20%.
As to `O=C1NC(=S)NC(=O)C1=Cc1cccc(O)c1`, the inhibition in experiment [1] is less than 20%.
`O=C1NC(=S)NC(=O)C1=Cc1ccc(O)c(O)c1O`: the IC50 in experiment [2] is 95.8 µM.
For `O=C1NC(=S)NC(=O)C1=Cc1ccc(O)c(O)c1`, the inhibition entry in experiment [3] was “Active”. This compound also showed an IC50 in experiment [2] of 6.1 µM.
In the case of `O=C1NC(=O)C(=Cc2ccc(O)c(O)c2)C(=O)N1`, in experiment [4], the inhibition result is “Active”. The same compound gave an IC50 in experiment [2] of 1.52 µM.
Take `O=C1CC(=O)NC(=O)N1`: in experiment [1], the inhibition is less than 20%.
In the case of `O=C1NC(=O)C(=Cc2cc(O)c(O)c(O)c2)C(=O)N1`, in experiment [2], the half-maximal inhibitory concentration (IC50) stood at 5.51 µM.
Take `COc1ccc(C=C2C(=O)NC(=S)NC2=O)cc1O`: in experiment [1], the inhibition was less than 20%.
In the case of `O=C1NC(=S)NC(=O)C1=Cc1ccc(O)cc1O`, in experiment [1], the inhibition is less than 20%.
As to `COc1cc(C=C2C(=O)NC(=S)NC2=O)ccc1O`, inhibition in experiment [2] was half-maximal at 7.8 µM (IC50).
Take `O=C1NC(=S)NC(=O)C1=Cc1cc(O)c(O)c(O)c1`: in experiment [2], the IC50 turned out to be 7.14 µM.
On to `O=C1NC(=O)C(=Cc2c(O)cc(O)cc2O)C(=O)N1`, for which, in experiment [1], the inhibition is less than 20%.
For the compound `O=Cc1ccc(O)c(O)c1`, the inhibition in experiment [1] is less than 20%.
Turning to `O=C1NC(=O)C(=Cc2ccccc2O)C(=O)N1`, in experiment [1], the inhibition is less than 20%.
Turning to `COc1cc(C=C2C(=O)NC(=O)NC2=O)cc(OC)c1OC`, in experiment [1], the inhibition was less than 20%.
The compound `COc1cc(C=C2C(=O)NC(=O)NC2=O)ccc1O` showed an IC50 in experiment [2] of 5.5 µM.
Take `O=C1NC(=O)C(=Cc2ccc(O)c(O)c2O)C(=O)N1`: in experiment [1], the inhibition is less than 20%.
In the case of `O=C1NC(=S)NC(=O)C1=Cc1c(O)cc(O)cc1O`, in experiment [1], the inhibition was less than 20%.
Take `O=C1CC(=O)NC(=S)N1`: in experiment [1], the inhibition is less than 20%.

Source of the values: ChEMBL document CHEMBL3286376, “Design, synthesis and biological evaluation of hydroxy- or methoxy-substituted 5-benzylidene(thio) barbiturates as novel tyrosinase inhibitors” (Bioorg Med Chem, 2014).
